Test results taken from ChEMBL document CHEMBL1127123, “Justicidin E: A new leukotriene biosynthesis inhibitor” (Bioorg Med Chem Lett, 1993).

How the values were obtained:
[1] = target: T1, Polyunsaturated fatty acid 5-lipoxygenase (Homo sapiens, UniProt P09917); assay: In vitro inhibition of LTB4 biosynthesis by human leukocytes; assay type: functional
T1 sequence (P09917 whole entry): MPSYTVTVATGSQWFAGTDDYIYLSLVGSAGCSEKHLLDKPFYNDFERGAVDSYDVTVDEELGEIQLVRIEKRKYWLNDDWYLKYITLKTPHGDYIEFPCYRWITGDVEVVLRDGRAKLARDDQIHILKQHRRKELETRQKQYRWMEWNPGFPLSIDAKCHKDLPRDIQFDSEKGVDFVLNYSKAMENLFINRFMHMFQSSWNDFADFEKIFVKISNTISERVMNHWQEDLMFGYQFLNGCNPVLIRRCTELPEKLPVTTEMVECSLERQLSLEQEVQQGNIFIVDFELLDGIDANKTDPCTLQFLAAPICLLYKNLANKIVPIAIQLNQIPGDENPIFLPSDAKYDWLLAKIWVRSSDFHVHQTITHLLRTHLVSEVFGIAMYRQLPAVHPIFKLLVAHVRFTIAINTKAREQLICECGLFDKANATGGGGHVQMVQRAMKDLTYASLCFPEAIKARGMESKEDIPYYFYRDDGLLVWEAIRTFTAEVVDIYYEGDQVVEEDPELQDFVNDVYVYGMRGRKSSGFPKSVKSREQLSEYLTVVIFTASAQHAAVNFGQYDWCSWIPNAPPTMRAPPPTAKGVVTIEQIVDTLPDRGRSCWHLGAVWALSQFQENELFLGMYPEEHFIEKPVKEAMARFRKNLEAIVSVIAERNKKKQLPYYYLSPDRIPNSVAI

[2] = target: T1, Polyunsaturated fatty acid 5-lipoxygenase; assay: In vitro inhibition of human recombinant 5-lipoxygenase enzyme
[3] = target: T1, Polyunsaturated fatty acid 5-lipoxygenase; assay: In vitro inhibition of human recombinant lipoxygenase enzyme; No inhibition
[4] = target: T1, Polyunsaturated fatty acid 5-lipoxygenase; assay: In vitro inhibition of human recombinant lipoxygenase enzyme

| Compound | IC50 [1] | further results |
| --- | --- | --- |
| COc1ccc2c(-c3ccccc3)c3c(cc2c1)C(=O)OC3 | 180 nM |  |
| Cc1cc2cc3c(cc2c(-c2ccc4c(c2)OCO4)c1C)OCO3 | 250 nM |  |
| O=C1OCc2c1cc1ccncc1c2-c1ccccc1 | 3800 nM |  |
| O=C1OC(=O)c2c1cc1cc3c(cc1c2-c1ccc2c(c1)OCO2)OCO3 | 660 nM |  |
| O=C1OCc2c1cc1cc3c(cc1c2-c1ccc2c(c1)OCO2)OCO3 | 70 nM | IC50 [2]: 500 nM |
| O=C1OCc2c1cc1cc(OCc3ccc(-c4ccccc4)cn3)ccc1c2-c1ccccc1 | 22 nM | IC50 [3]: Not Active |
| COc1ccc(-c2c3c(cc4cc5c(cc24)OCO5)C(=O)OC3)cc1OC | > 5000 nM |  |
| O=C1OCc2c1cc1ccccc1c2-c1ccncc1 | > 4000 nM |  |
| O=C1OCc2c1cc1ccccc1c2-c1ccccc1 | 250 nM |  |
| COc1ccc(-c2c3c(cc4ccccc24)C(=O)OC3)cc1 | 1400 nM |  |
| COc1cccc(-c2c3c(cc4ccccc24)C(=O)OC3)c1 | 42 nM |  |
| O=C1OCc2c1cc1cc(OCc3ccccc3)ccc1c2-c1ccccc1 | 100 nM | IC50 [4]: 3000 nM |
| COc1ccc2cc3c(c(-c4ccccc4)c2c1)COC3=O | 670 nM |  |
| O=C1OCc2c1cc1cc3c(cc1c2-c1ccccc1)OCO3 | 160 nM |  |
| O=C1OCc2c1cc1sccc1c2-c1ccccc1 | 450 nM |  |
| O=C1OCc2c1cc1cc(OCc3ccc4ccccc4n3)ccc1c2-c1ccccc1 | 88 nM |  |
| O=C1OCc2c1cc1ccccc1c2-c1ccc2c(c1)OCO2 | 380 nM |  |
| O=C1NCc2c1cc1cc3c(cc1c2-c1ccc2c(c1)OCO2)OCO3 | 4200 nM |  |
| OCc1cc2cc3c(cc2c(-c2ccc4c(c2)OCO4)c1CO)OCO3 | 2200 nM |  |
| c1cc2c(cc1C1c3cocc3Cc3cc4c(cc31)OCO4)OCO2 (stereo unspecified) | 420 nM |  |
| c1cc2c(cc1-c1c3c(cc4cc5c(cc14)OCO5)COC3)OCO2 | 230 nM |  |
| COc1cc2cc3c(c(-c4ccc5c(c4)OCO5)c2cc1OC)COC3=O [RETROJUSTICIDIN B] | 760 nM |  |
| O=C1OCc2cc3cc4c(cc3c(-c3ccc5c(c3)OCO5)c21)OCO4 [TAIWANIN C] | 250 nM |  |
